Source: US10487313B2, “Efficient induction of definitive endoderm from pluripotent stem cells” (Novo Nordisk A/S, priority 2011, dated 2019)

Tests used:
hES SA121 cells = assay: CHIR specificity: cell survival after 24 h pre-treatment prior to AA addition; type: cell-based, human; conditions: 24 h pre-treatment with BIO (0.5 μM) or AA alone (100 ng/ml), then AA
Description: (§1) hES SA121 and ChIPS4 cells were treated with either CHIR (3 μM), BIO (0.5 μM), Wnt3a (200 ng/ml) or AA alone (100 ng/ml) for 24 h prior to AA addition to show CHIR specificity (d1). Additionally, D'Amour (protocol as described in Kroon et al 2008) was tested in parallel.
The data clearly illustrated that PS transition (upregulation of Brachyury) and DE induction (upregulation of SOX17) were both accelerated and much higher after CHIR treatment compared to pretreatment with growth factors such as AA and Wnt3a.

[1] = system: SA121 hES and chIPS4 iPS cells; assay: Quantitative real-time PCR of PS and DE markers (Brachyury, SOX17) during DE induction; type: cell-based, human; conditions: for Brachyury (PS) response timing compared to CHIR treatment: Wnt3a (200 ng/ml) or BIO (0.5 μM) 24 h instead of CHIR, upregulated D2
Description: Human embryonic stem (hES) cells SA121 and chIPS4 (Cellartis) were grown on human fibronectin (Sigma) in DEF culture media (Cellartis) with 30 ng/ml bFGF (Invitrogen) and 10 ng/ml Noggin (Peprotech) in 6-96 well plates. Cells were single cell passaged with Rock inhibitor Y-27632 (Calbiochem) and seeded at a density of 40000 cells/cm2 for experiments. Experiments were initiated 4 d after passage.
Confluent cultures were washed once in RPMI1640 (Invitrogen) before 24 hour pre-treatment with 0,5-7μM CHIR99021 (Stemgent) in RPMI. Control cells were left untreated in RPMI and D'Amour cells were either left in RPMI or treated with AA (Peprotech)+Wnt3a (R&D Systems) without pre-treatment depending on experimental setup.
After 24 hours, pretreated and control cells were washed once with RPMI before adding 100 ng/ml AA in RPMI. D'Amour cells were also treated with 100 ng/ml AA but with 0,2% FBS instead of B27. 24 h later, 2% B27 (Invitrogen) was added to the AA media for 2-3 d. Control cells were treated with B27 to prevent cell death and D'Amour cells with 2% FBS according to published protocol. Media was changed every day.
RNA samples were collected after 24 h pre-treatment (D1), after 1 day of AA treatment (D2) and after 1-2 d of AA+B27 treatment (D3-4). Total RNA was extracted with the Rneasy Plus Mini kit (Qiagen) and quantitative real-time PCR was performed using the StepOnePLus system (Applied Biosystems).
Undifferentiated SA121 hES and chIPS4 iPS cells in DEF media (DO) were cultured either in RPMI without CHIR (Ctrl D1) or treated for 24 h with CHIR in RPMI (CHIR D1). The cells were then washed to ensure absence of CHIR and then both conditions were treated with 1 d AA (Ctrl and CHIR d2). […] T fold inductions after 24 h CHIR treatment spanned between 500-100000 compared to undifferentiated cells (d0). T protein levels were also confirmed with ICC (FIG. 2C).
The efficiency levels for both T and SOX17 were highly robust (n>60) and confirmed with IHC and SOX17 quantifications (FIG. 2C and Table 2.). […] SOX17 expression peaked already after one day of AA treatment when cells were subjected to CHIR for 24 h before AA induction.
as §1
Chir was titrated at concentrations between 1-7 uM and analyzed after 24 h Chir treatment (D1) and after 2 d of following AA treatment (D3).

O=C1Nc2cc(Br)ccc2/C1=C1/Nc2ccccc2/C1=N\O [BIO]
cell survival until day 3 (hES SA121 cells): did not survive until day 3 | Brachyury (PS) response timing compared to CHIR treatment [1]: delayed

AA: Activin A, growth factor used for definitive endoderm induction
cell survival until day 3 (hES SA121 cells): did not survive until day 3 | time of SOX17 induction peak after AA ([1]; CHIR-priming step 24 h then AA, versus AA alone): 3 to 4 days

B1: Wnt3a: the Wnt receptor ligand Wnt3a (protein, UniProt P56704 19-352, looked up)
Protein Wnt-3a: SYPIWWSLAVGPQYSSLGSQPILCASIPGLVPKQLRFCRNYVEIMPSVAEGIKIGIQECQHQFRGRRWNCTTVHDSLAIFGPVLDKATRESAFVHAIASAGVAFAVTRSCAEGTAAICGCSSRHQGSPGKGWKWGGCSEDIEFGGMVSREFADARENRPDARSAMNRHNNEAGRQAIASHMHLKCKCHGLSGSCEVKTCWWSQPDFRAIGDFLKDKYDSASEMVVEKHRESRGWVETLRPRYTYFKVPTERDLVYYEASPNFCEPNPETGSFGTRDRTCNVSSHGIDGCDLLCCGRGHNARAERRREKCRCVFHWCCYVSCQECTRVYDVHTCK
Brachyury (PS) response timing compared to CHIR treatment [1]: delayed
